# Reference: a melting point compilation (Tetko et al.; mined from patent text by program, amines drawn as free bases though some values may be those of a salt)
row,melting point,SMILES
1,129 °C,CN(CCCN1CCC(=C2c3ccccc3C=Cc3ccccc32)CC1)c1ncccn1
2,79 °C,Cc1ccc(S(=O)(=O)N2CCCC2c2cccc(C)c2)cc1 (racemic)
3,195 to 196 °C,CCOc1cc(Oc2ccc(S(C)(=O)=O)nc2)cc2cc(C3=NCC(CC(N)=O)S3)[nH]c12 (centres undefined)
4,283 to 286 °C,CCOC(=O)c1[nH]c2cc(Cl)cc(Cl)c2c1NCC(=O)c1ccc([N+](=O)[O-])cc1
5,220 to 222 °C,O=c1c2c(c3cccnc3n1-c1ccccc1)N(c1ccccc1)CC2
6,277 to 279 °C,Cc1nc2c(c(=O)[nH]1)-c1ccc(Cl)cc1C(c1ccccc1Cl)=NC2
7,110 to 111 °C,Cc1c(N)c(C)c2c(c1CCCO)OCC2c1ccc(C(C)C)cc1 (centres undefined)
8,248 to 249 °C,COc1cc(C(=O)NS(=O)(=O)c2ccccc2C)ccc1Cc1cccc2ccc(NC(=O)CC3CCCC3)cc12
9,142 to 144 °C,COC(=O)C1=Cc2cc(-c3ccc(C(C)C)cc3)ccc2S(=O)(=O)CC1
10,160 to 162 °C,C(=C\c1nc(COc2ccc(-n3ccnc3)cc2)co1)/c1ccccc1
11,162 °C,CCCCc1nn2c(c1Cc1ccc(-c3ccccc3C(=O)O)cc1)CCCC2
12,155 to 156 °C,CN(C)C=NS(=O)(=O)c1cc(CCNC(=O)C(F)(F)F)ccc1I
13,201 to 202 °C,Brc1ccc(Nc2nnc(Cc3ccncc3)c3ccccc23)cc1
14,184 to 186 °C,CCCCCn1c(=O)c2cc(C(=O)O)cn2c2ccccc21
15,155 to 156 °C,CCOC(=O)c1ccc2ccc(O)cc2c1
16,130 to 131 °C,COc1ccc2ccc(O)c([N+](=O)[O-])c2c1
17,222 to 223 °C,CC(CO)n1nc(-c2cnc(N)nc2-c2ccccc2)ccc1=O (centres undefined)
18,96 to 97 °C,CCOP(=O)(Cc1ccc(C(=S)N2CCCc3ccccc32)cc1)OCC
19,168 °C,O=C(OCC(O)CO)c1cc(F)ccc1Nc1ccnc2cc(Cl)ccc12 (centres undefined)

row,melting point,SMILES
1,206 to 208 °C,NC(=O)c1ccc(-c2cccc(N)c2)cc1
2,113 to 115 °C,COC1=CC(=O)CN(Cc2ccccc2)C1
3,209 °C,C=CCn1cc(C(=O)O)c(=O)c2cc(F)c(N3CCN(Cc4ccccc4)CC3)cc21
4,> 250 °C,CS(=O)(=O)c1c(C(=O)NN=Cc2cccc3ccccc23)[nH]c2ccccc12
5,116 to 119 °C,CCc1nc2c(C)cc(C)nc2n1Cc1ccc(C(=C(SC)c2nnn[nH]2)c2ccccc2)cc1
6,123 to 124 °C,CCOC(=O)c1ccc2sc(C=Cc3cccnc3)c(C)c2c1
7,112 to 114 °C,CCCCOc1ccc2c(c1)C(N(CC(=O)NC(=N)N)S(C)(=O)=O)CC(C)(C)O2 (centres undefined)
8,56 to 58 °C,Cc1cc(OC(F)F)nc(NC(=O)Oc2ccccc2)n1
9,109 to 110 °C,CS(=O)(=O)c1ccc(C(Cc2ccc(F)cc2)C(=O)Nc2nc3ccccc3o2)cc1 (centres undefined)
10,132 to 133 °C,O=C(O)CN1CCN(Cc2ccccc2)C1=O
11,61 to 62 °C,CCCCCCCCCCCCCCCCCCOc1ccc(OCc2ccccc2)c(C(=O)N(CC(=O)OCC)CC(=O)OCC)c1
12,214 to 215 °C,COC(=O)c1nc2cc(Cl)c3cccnc3c2o1
13,176 to 178 °C,O=C(NC1=NN(c2ccc(Cl)cc2)C(c2ccccc2)C1)C(F)(F)F (centres undefined)
14,152 to 154 °C,COCn1ccnc1C(O)(c1ccccc1)c1cccc(C(F)(F)F)c1 (centres undefined)
15,160 °C,Cn1cc(Cc2cc3cc(C(F)(F)F)ccc3n2S(=O)(=O)c2cccc(C(C)(C)C)c2)cc1C(=O)O
16,208 to 210 °C,COC(=O)C1=C(C)NC(C)=C(/C=C/S(=O)(=O)N(C)Cc2ccccc2)C1c1cccc([N+](=O)[O-])c1 (centres undefined)
17,206 to 207 °C,COc1cccc(Oc2c(Cl)nc(-c3cccs3)nc2NS(=O)(=O)c2ccc(C(C)(C)C)cc2)c1
18,140 °C,Cc1ccc(S(=O)(=O)Nc2ccccc2O)cc1
19,135 to 138 °C,Clc1ccc(Nc2nc3ccccc3c3c2ncn3-c2ccco2)cc1Cl

row,melting point,SMILES
1,98 to 99 °C,CC1(C)C=C(c2cccnc2)c2cc(C#N)ccc2O1
2,108 °C,COc1cc(Br)ccc1OCc1ccc2ccccc2c1
3,154 to 156 °C,COc1ccc(C2=NN(c3cnc4ccccc4n3)C(=O)[C@H]3CC=CC[C@@H]23)cc1OC (relative stereo)
4,207 °C,O=C(NC(=O)N1CCC(COc2ccccc2)CC1)c1ccc(O)cc1
5,180 to 183 °C,Cc1nc(NC(=O)c2ccccc2)sc1C(=O)NCc1ccccc1F
6,92 to 95 °C,CCCCc1nn2cccc(C(=O)OC)c2c1Cc1ccc(-c2ccccc2C#N)cc1
7,222 °C,CCn1nc(C(C)C)c2c1C(=NC#N)NCC(c1ccccc1)=N2
8,95 to 96 °C,O=c1ccoc(C(O)c2cccc(F)c2)c1OCc1ccccc1 (centres undefined)
9,295 °C,O=C1NC(c2ccccc2)=C2C(=O)OC(c3ccc(Br)cc3)=C12
10,100 to 101 °C,Cc1c(C)n(CCCF)c2c(OCc3ccccc3)nncc12
11,171 to 173 °C,O=C(CCc1ccccc1)NC(NC(=S)Nc1cccc([N+](=O)[O-])c1)C(Cl)(Cl)Cl (centres undefined)
12,> 250 °C,COc1ccc(-c2ccn3c(=O)c(C(=O)O)ccc3c2)cc1
13,126 °C,O=C(c1ccccc1[N+](=O)[O-])C1CCN(C(=O)C(F)(F)F)CC1
14,93 to 98 °C,CC(C)CC(NC(=O)C(Cc1c[nH]cn1)NC(=O)C(Cc1cccc2ccccc12)Cc1cccc2ccccc12)C(O)C(=O)OC(C)C (centres undefined)
15,64 to 68 °C,COc1cc(OC)c(N2CCCC2)cc1/C=C/C(=O)c1ccc(S(=O)(=O)NCCCN2CCN(C)CC2)cc1
16,185 to 186 °C,S=C1Nc2ccccc2N2CCc3cccc1c32
17,51 to 53 °C,O=C(O)CCc1ccc(SCCC(c2ccccc2)(c2ccccc2)c2ccccc2)cc1
18,129 to 130 °C,CC/C=C/Cn1c(Sc2cc(C)cc(C)c2)c(CC)c(=O)[nH]c1=O

# More lines, now with the values behind:
row,SMILES,melting point
1,COc1cc(-c2cnc3[nH]cc(C(=O)NC4CCCOC4)c3n2)cc(OC)c1OC (centres undefined),191 to 192 °C
2,Cc1ccc(C(=O)NC(C)(C(N)=O)C(C)C)cc1 (centres undefined),145 to 152 °C
3,O=C(Nc1ccccc1O)c1nnn[nH]1,220 to 223 °C
4,COc1cc(C)cc(OC)c1C1=NC(NC(=O)Nc2cccc(C)c2)C(=O)N(C)c2ccccc21 (centres undefined),260 °C
5,Nc1cc(F)c(N2CCOCC2)cc1Cl,89.5 °C
6,CCC(=O)c1cc(C(=O)OC)c(N)cc1C(F)(F)F,141 to 144 °C
7,CCN1CCCC1CNC(=O)c1c(OC)c(Cl)cc(Br)c1OC (centres undefined),124 to 125 °C
8,[N-]=[N+]=NCCOc1cc(Cl)cc([N+](=O)[O-])c1N,113 to 114 °C
9,CS(=O)(=O)c1ccc(N2CCC(N3CCCC3)CC2)cc1,166 to 170 °C
10,CS(=O)c1ccc(-n2cnc3ccc(-c4nnc(SCc5cccc(C(F)(F)F)c5)o4)cc32)cc1 (centres undefined),88 to 91 °C
11,COC(=O)CC[C@H](NC(=O)CCCCC=Cc1cnc2nc(NC(=O)C(C)(C)C)nc(O)c2c1)C(=O)OC,79 to 81 °C
12,CCC(CC)c1ccc(Cl)c2nc3n(c12)CCCCN3c1ccc(N(C)C)cc1OC(F)(F)F,158 to 159 °C
13,Nc1nc(OC2CCCC2)c2ncn(C3C=CC(CO)C3)c2n1 (centres undefined),188 to 190 °C
14,Nc1c(F)cc(Cn2ccnc2S)cc1F,181 to 184 °C
15,CCOC(=O)CSc1nnsc1-c1ccc(C(C)(C)C)cc1,62.5 to 63.5 °C
16,O=P(c1ccccc1)(c1ccccc1)c1cc(P(=O)(c2ccccc2)c2ccccc2)nc(P(=O)(c2ccccc2)c2ccccc2)n1,235 to 236 °C
17,CCC(=O)c1ccc(SCCCBr)cc1,40 to 41 °C
18,CCCc1c(Br)sc2[nH]c(=O)c(=O)[nH]c12,269 to 271 °C
19,CN1CCN(c2ccc(Cl)nn2)CC1,106 to 107 °C
20,CCc1nc2ccc(C(C(C)C)n3ccnc3)cc2[nH]c1=O (centres undefined),204 °C
21,O=C1C=C(c2c[nH]c3ccc(Cl)cc23)C(=O)N1,254 to 264 °C
22,COc1cc(C(O)C#Cc2c(C)nc(N)nc2N)cc(OC)c1OC (centres undefined),174 to 176 °C

row,SMILES,melting point
1,CSc1nc(OCC(F)(F)F)nc2sc(C)cc12,97 °C
2,CCC(CC)c1ccc(Cl)c2nc3n(c12)CCCN3c1cnc(N(C)C)cc1C,228 to 230 °C
3,O=C(O)c1cc(Br)c(O)c(Br)n1,195 to 197 °C
4,COC(=O)CCCCCCNC(=O)c1cn2c3c(cccc13)CCC2,66 to 67 °C
5,CCCCOc1c(CO)n(CC2CC2)c(=O)c2ccc(Br)cc12,111 to 112 °C
6,N=C(NO)c1cnn2c(C(F)(F)F)cc(-c3ccc(C(F)(F)F)cc3)nc12,252 °C
7,Clc1ccc(-c2ncn(CCCN3CCOCC3)c2-c2ccncc2)cc1Cl,106 °C
8,O=C(CCCN1CCN(c2cccc(Cl)c2Cl)CC1)N1CCc2ccccc21,134 to 136 °C
9,CCOC(CBr)(OCC)C(=O)CBr,40 to 41.5 °C
10,Cc1nc(C(=O)N(C)C)c2n1-c1ccc(Cl)cc1C(c1ccccc1Cl)=NC2,225 to 230 °C
11,Nc1ccc2[nH]cc(C3=CCN4CCCC4C3)c2c1 (centres undefined),208 to 210 °C
12,CC(CCC(=O)O)(c1ccc(OCc2ccc3ccc(Cl)cc3n2)cc1)c1ccc(OCc2ccc3ccc(Cl)cc3n2)cc1,88 to 90 °C
13,CCOC(=O)COc1ccc(O)c(Cl)c1,80 to 82 °C
14,CCOCc1nc2c(N)nc(C)c(C)c2n1CCOCCCc1nccs1,91 to 92 °C
15,Cc1cccc2cc(N3CCN(CCO)CC3)[nH]c(=O)c12,209 to 210 °C
16,CN1CCC(c2cc3c(N)cccc3c(=O)[nH]2)CC1,222 to 224 °C
17,COP(=S)(OC)Oc1nsc(-c2ccccc2)c1C#N,40 °C
18,CCOC(=O)CN1CC[C@@H](O)C1=O,84 to 85 °C
19,CCC(=Nc1ccc2nc(N3CCN(C)CC3)c(N3CCN(C)CC3)nc2c1)N(C)C,173 to 175 °C
20,CC(=O)C1=C(O)C(=C(C)Nc2cc(NC(=O)C(O)CO)cc(NC(=O)C(O)CO)c2)C(=O)OC1=O (centres undefined),231 °C
21,CCC1=Cc2cc(OCC(=O)O)c(Cl)c(Cl)c2C1=O,205 to 207 °C
